Results from ChEMBL document CHEMBL1143674, “Isoprenylated flavonoids from the stem bark of Erythrina abyssinica” (J Nat Prod, 2007).

Target: T1, Tyrosine-protein phosphatase non-receptor type 1 (Homo sapiens, UniProt P18031)
T1 sequence (P18031 whole entry): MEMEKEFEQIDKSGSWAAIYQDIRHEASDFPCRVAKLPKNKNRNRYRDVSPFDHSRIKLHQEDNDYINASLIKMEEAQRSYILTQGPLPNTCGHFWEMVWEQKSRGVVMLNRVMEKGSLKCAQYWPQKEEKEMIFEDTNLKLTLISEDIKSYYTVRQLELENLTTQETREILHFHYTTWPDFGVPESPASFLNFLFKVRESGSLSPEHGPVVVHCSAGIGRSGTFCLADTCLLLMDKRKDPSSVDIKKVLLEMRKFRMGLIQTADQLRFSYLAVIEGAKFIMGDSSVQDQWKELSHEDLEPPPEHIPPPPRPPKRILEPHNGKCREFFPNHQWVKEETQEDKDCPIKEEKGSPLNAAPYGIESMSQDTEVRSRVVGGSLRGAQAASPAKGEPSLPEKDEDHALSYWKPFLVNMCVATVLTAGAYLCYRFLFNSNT
Test: Inhibition of human recombinant PTP1B

SMILES | IC50
COc1cc([C@@H]2CC(=O)c3ccc(O)cc3O2)cc(CC=C(C)C)c1O | 19.2 µM
CC(C)=CCc1cc([C@@H]2CC(=O)c3c(O)cc(O)cc3O2)cc(O)c1O [SIGMOIDIN B] | 19.4 µM
CC(C)=CCc1cc(/C=C/C(=O)c2ccc(O)cc2O)cc(CC=C(C)C)c1O [ABYSSINONE VI] | 20.6 µM
C=C(C)C(O)Cc1cc([C@@H]2CC(=O)c3c(O)cc(O)cc3O2)cc(CC=C(C)C)c1O (stereo partly drawn) [ABYSSINOFLAVANONE VII] | 15.7 µM
CC1(C)C=Cc2cc([C@@H]3CC(=O)c4c(O)cc(O)cc4O3)cc(O)c2O1 [SIGMOIDIN C] | > 60 µM
COc1cc(C2CC(=O)c3c(O)cc(O)cc3O2)cc2c1OC(C)(C)C=C2 (stereo not drawn) [ABYSSININ I] | 18.2 µM
CC(C)=CCc1cc([C@@H]2CC(=O)c3c(O)cc(O)cc3O2)c(CC=C(C)C)c(O)c1O [SIGMOIDIN A] | 14.4 µM
CC(C)=CCc1cc(-c2cc(=O)c3c(O)cc(O)cc3o2)ccc1O | 26.7 µM
COc1cc([C@@H]2CC(=O)c3c(O)cc(O)cc3O2)cc(CC=C(C)C)c1O [ABYSSININ II] | 17.3 µM
CC1(C)C=Cc2cc([C@@H]3CC(=O)c4c(O)cc(O)cc4O3)ccc2O1 [ABYSSINOFLAVONE V] | > 60 µM
CC(C)=CCc1cc([C@@H]2CC(=O)c3c(O)cc(O)cc3O2)cc2ccoc12 [ABYSSINOFLAVANONE VI] | 18.9 µM
CC(C)=CCc1cc(/C=C/C(=O)c2ccc(O)cc2O)ccc1O [LICOAGROCHALCONE A] | 16.9 µM
CC(C)=CCc1c([C@H]2CC(=O)c3c(O)cc(O)cc3O2)cc2c(c1O)OC(C)(C)C=C2 [SIGMOIDIN F] | 14.2 µM
